Measurements published in the NIST ThermoML archive (doi:10.1016/j.jct.2015.07.005).
Where “and” joins values, the source holds several entries; their conditions need not be identical. Equal entries are not always repeated.

Conditions: Gas, Frequency=0.005 MHz, Spherical cavity resonance method

CC [ethane]
Conditions	speed of sound
280.01 K, 500.43 kPa	294.64 m/s and 294.65 m/s and 294.64 m/s
280.02 K, 500.43 kPa	294.65 m/s and 294.65 m/s
280.02 K, 500.44 kPa	294.65 m/s
319.55 K, 463.5 kPa	316.22 m/s
319.55 K, 463.51 kPa	316.22 m/s
319.95 K, 464.08 kPa	316.4 m/s
319.95 K, 464.09 kPa	316.4 m/s
324.99 K, 479.74 kPa	318.64 m/s
324.99 K, 479.75 kPa	318.65 m/s
325 K, 479.75 kPa	318.65 m/s and 318.65 m/s
325 K, 479.76 kPa	318.65 m/s
339.37 K, 492.93 kPa	325.4 m/s
339.89 K, 493.66 kPa	325.64 m/s
359.27 K, 522.1 kPa	334.3 m/s
359.27 K, 522.11 kPa	334.3 m/s
359.85 K, 523.03 kPa	334.57 m/s and 334.57 m/s
365 K, 479.42 kPa	337.34 m/s and 337.34 m/s
365.01 K, 479.42 kPa	337.35 m/s and 337.35 m/s
365.01 K, 479.43 kPa	337.34 m/s and 337.35 m/s
379.19 K, 551.11 kPa	342.95 m/s
379.76 K, 551.9 kPa	343.19 m/s
379.77 K, 551.9 kPa	343.19 m/s
399.22 K, 579.97 kPa	351.41 m/s
399.8 K, 580.93 kPa	351.69 m/s and 351.69 m/s
404.98 K, 531.39 kPa	354.23 m/s
404.98 K, 531.4 kPa	354.23 m/s
404.98 K, 531.41 kPa	354.22 m/s
419.45 K, 608.87 kPa	359.75 m/s
419.46 K, 608.88 kPa	359.76 m/s
419.91 K, 609.51 kPa	359.94 m/s
419.92 K, 609.52 kPa	359.95 m/s
444.98 K, 496.44 kPa	370.72 m/s
444.98 K, 496.45 kPa	370.72 m/s and 370.72 m/s and 370.72 m/s
444.99 K, 496.45 kPa	370.72 m/s
484.95 K, 497.52 kPa	386.13 m/s
484.95 K, 497.53 kPa	386.13 m/s
484.95 K, 497.54 kPa	386.13 m/s
484.95 K, 497.55 kPa	386.14 m/s
484.95 K, 497.56 kPa	386.14 m/s
484.96 K, 497.55 kPa	386.14 m/s and 386.14 m/s
484.96 K, 539.51 kPa	386 m/s
484.96 K, 539.52 kPa	386 m/s and 386 m/s

COC(F)(F)C(F)(F)C(F)(F)F [heptafluoropropyl methyl ether]
Conditions	speed of sound
324.96 K, 164.7 kPa	110.67 m/s
324.97 K, 64.71 kPa	115.86 m/s and 115.86 m/s
324.97 K, 95.55 kPa	114.33 m/s
324.97 K, 95.56 kPa	114.33 m/s
324.97 K, 95.57 kPa	114.33 m/s
324.97 K, 95.59 kPa	114.33 m/s
324.97 K, 133.44 kPa	112.39 m/s
324.97 K, 133.45 kPa	112.39 m/s
324.97 K, 164.69 kPa	110.67 m/s
324.97 K, 164.72 kPa	110.67 m/s
349.97 K, 63.93 kPa	120.9 m/s
349.97 K, 63.94 kPa	120.9 m/s
349.97 K, 154.62 kPa	117.37 m/s
349.97 K, 154.64 kPa	117.37 m/s
349.97 K, 235.72 kPa	113.96 m/s
349.97 K, 235.74 kPa	113.96 m/s
349.97 K, 235.77 kPa	113.96 m/s
349.97 K, 317.58 kPa	110.17 m/s
349.97 K, 317.59 kPa	110.17 m/s
349.97 K, 317.63 kPa	110.17 m/s
374.95 K, 63.1 kPa	125.6 m/s and 125.6 m/s
374.95 K, 63.11 kPa	125.6 m/s
374.95 K, 160.58 kPa	122.61 m/s
374.95 K, 160.6 kPa	122.61 m/s
374.95 K, 285.28 kPa	118.5 m/s
374.95 K, 285.32 kPa	118.5 m/s
374.95 K, 285.36 kPa	118.5 m/s
374.95 K, 400.83 kPa	114.37 m/s
374.95 K, 400.86 kPa	114.37 m/s
374.95 K, 400.9 kPa	114.36 m/s
374.95 K, 510.48 kPa	110.03 m/s
374.95 K, 510.5 kPa	110.03 m/s
374.95 K, 632.78 kPa	104.58 m/s
374.95 K, 632.8 kPa	104.58 m/s
374.95 K, 632.82 kPa	104.58 m/s
374.96 K, 63.11 kPa	125.6 m/s
374.96 K, 160.58 kPa	122.61 m/s
399.99 K, 67.78 kPa	129.91 m/s
399.99 K, 197.55 kPa	126.68 m/s
399.99 K, 349.57 kPa	122.65 m/s
399.99 K, 650.2 kPa	113.69 m/s
399.99 K, 650.23 kPa	113.69 m/s
399.99 K, 806.55 kPa	108.28 m/s
399.99 K, 953.71 kPa	102.52 m/s
399.99 K, 953.73 kPa	102.52 m/s
399.99 K, 1130.3 kPa	94.29 m/s
400 K, 67.78 kPa	129.91 m/s
400 K, 197.63 kPa	126.68 m/s
400 K, 197.66 kPa	126.68 m/s
400 K, 349.52 kPa	122.65 m/s
400 K, 349.53 kPa	122.65 m/s
400 K, 502.98 kPa	118.27 m/s
400 K, 503.01 kPa	118.27 m/s
400 K, 503.03 kPa	118.27 m/s
400 K, 805.95 kPa	108.3 m/s
400 K, 805.97 kPa	108.3 m/s
400 K, 805.99 kPa	108.3 m/s
400 K, 806.53 kPa	108.28 m/s
400 K, 806.58 kPa	108.28 m/s
400 K, 953.71 kPa	102.52 m/s
400 K, 1130.2 kPa	94.3 m/s
424.94 K, 60.05 kPa	134.29 m/s
424.94 K, 60.06 kPa	134.29 m/s
424.94 K, 200.53 kPa	131.44 m/s
424.94 K, 200.58 kPa	131.44 m/s
424.94 K, 407.75 kPa	127 m/s
424.94 K, 407.78 kPa	127 m/s
424.94 K, 407.79 kPa	127 m/s
424.94 K, 407.83 kPa	127 m/s
424.94 K, 603.76 kPa	122.51 m/s
424.94 K, 603.77 kPa	122.51 m/s
424.94 K, 603.81 kPa	122.51 m/s
424.94 K, 802.02 kPa	117.61 m/s
424.94 K, 802.08 kPa	117.6 m/s
424.94 K, 802.15 kPa	117.6 m/s
424.94 K, 1005.8 kPa	112.1 m/s
424.94 K, 1006 kPa	112.1 m/s
424.94 K, 1006.1 kPa	112.09 m/s
424.94 K, 1202.6 kPa	106.2 m/s and 106.21 m/s
424.94 K, 1202.7 kPa	106.2 m/s
424.94 K, 1393 kPa	99.76 m/s
424.94 K, 1393.1 kPa	99.76 m/s
424.94 K, 1393.2 kPa	99.75 m/s
424.94 K, 1607.6 kPa	91.22 m/s
424.94 K, 1607.7 kPa	91.21 m/s
424.94 K, 1608.4 kPa	91.18 m/s
424.94 K, 1608.5 kPa	91.17 m/s
424.94 K, 1608.7 kPa	91.17 m/s
449.95 K, 64.75 kPa	138.25 m/s
449.95 K, 64.76 kPa	138.25 m/s
449.95 K, 208.64 kPa	135.84 m/s
449.95 K, 208.65 kPa	135.84 m/s
449.95 K, 396.59 kPa	132.57 m/s
449.95 K, 396.63 kPa	132.57 m/s
449.95 K, 396.66 kPa	132.57 m/s
449.95 K, 606.05 kPa	128.76 m/s
449.95 K, 606.08 kPa	128.76 m/s
449.95 K, 606.12 kPa	128.76 m/s
449.95 K, 606.24 kPa	128.76 m/s
449.95 K, 606.26 kPa	128.76 m/s
449.95 K, 606.27 kPa	128.76 m/s
449.95 K, 809.63 kPa	124.87 m/s
449.95 K, 809.64 kPa	124.87 m/s
449.95 K, 1001.1 kPa	121.03 m/s and 121.04 m/s
449.95 K, 1209.6 kPa	116.6 m/s
449.95 K, 1209.7 kPa	116.6 m/s
449.95 K, 1413.8 kPa	111.99 m/s
449.95 K, 1623.9 kPa	106.9 m/s
449.96 K, 1001.1 kPa	121.04 m/s
449.96 K, 1624.3 kPa	106.89 m/s
475 K, 67.47 kPa	142.11 m/s
475 K, 67.48 kPa	142.11 m/s
475 K, 67.49 kPa	142.12 m/s
475 K, 67.62 kPa	142.11 m/s
475 K, 67.64 kPa	142.11 m/s
475 K, 189.2 kPa	140.43 m/s
475 K, 189.28 kPa	140.42 m/s
475 K, 395.98 kPa	137.47 m/s
475 K, 395.99 kPa	137.47 m/s
475 K, 396.05 kPa	137.47 m/s
475 K, 396.11 kPa	137.47 m/s
475 K, 396.13 kPa	137.47 m/s
475 K, 396.16 kPa	137.47 m/s
475.01 K, 396.09 kPa	137.47 m/s
475.01 K, 396.11 kPa	137.47 m/s
475.01 K, 587.06 kPa	134.67 m/s
475.01 K, 795.76 kPa	131.5 m/s
475.01 K, 1005.5 kPa	128.23 m/s
475.01 K, 1197.2 kPa	125.14 m/s
475.01 K, 1402 kPa	121.75 m/s
475.01 K, 1402.1 kPa	121.75 m/s
475.02 K, 795.76 kPa	131.5 m/s
475.02 K, 1005.5 kPa	128.23 m/s
475.02 K, 1197.2 kPa	125.14 m/s
475.02 K, 1402.1 kPa	121.75 m/s
475.02 K, 1583.1 kPa	118.65 m/s
475.02 K, 1583.2 kPa	118.65 m/s
500.01 K, 62.05 kPa	145.96 m/s
500.01 K, 62.06 kPa	145.96 m/s
500.01 K, 62.27 kPa	145.95 m/s
500.01 K, 192.99 kPa	144.43 m/s
500.01 K, 193.25 kPa	144.42 m/s
500.01 K, 193.35 kPa	144.42 m/s
500.01 K, 400.4 kPa	141.96 m/s
500.01 K, 400.43 kPa	141.96 m/s
500.01 K, 400.48 kPa	141.96 m/s
500.01 K, 400.64 kPa	141.97 m/s
500.01 K, 400.67 kPa	141.97 m/s
500.01 K, 605.81 kPa	139.49 m/s
500.01 K, 804.2 kPa	137.05 m/s
500.02 K, 400.69 kPa	141.97 m/s
500.02 K, 605.7 kPa	139.49 m/s
500.02 K, 804.24 kPa	137.05 m/s
500.02 K, 804.31 kPa	137.05 m/s
500.02 K, 1002.8 kPa	134.57 m/s
500.02 K, 1206.9 kPa	131.99 m/s and 131.98 m/s
500.02 K, 1207 kPa	131.98 m/s
500.02 K, 1400.6 kPa	129.51 m/s and 129.5 m/s
500.02 K, 1400.7 kPa	129.5 m/s
500.02 K, 1593.1 kPa	127 m/s
500.03 K, 1593.1 kPa	127.01 m/s and 127 m/s
